For experiment [1], the system named is Haemophilus influenzae. Nature of the experiment: Antibacterial activity against Haemophilus influenzae assessed as bacterial growth inhibition measured after 16 to 24 hrs by broth microdilution assay. In kind it is functional. The following applies: time 16-24 hrs. Background: Dilution methods test growth across graded concentrations, often in twofold steps.

Experiment [2] concerns Staphylococcus epidermidis. Nature of the experiment: Antibacterial activity against Methicillin-resistant Staphylococcus epidermidis assessed as inhibition of bacterial growth. In kind it is functional.
The subject of experiment [3] is Staphylococcus aureus. Nature of the experiment: Antibacterial activity against Methicillin-resistant Staphylococcus aureus assessed as inhibition of bacterial growth. In kind it is functional.
Experiment [4] addresses Coagulation factor X (Homo sapiens, UniProt P00742). Nature of the experiment: Inhibition of human factor Xa.
Experiment [5] concerns Staphylococcus aureus. Kind of experiment: Antibacterial activity against Staphylococcus aureus assessed as reduction in bacterial growth incubated for 24 hrs by broth microdilution method. In kind it is functional.
For experiment [6], the system named is Escherichia coli. Nature of the experiment: Antibacterial activity against Escherichia coli MG1655 in presence of polymyxin B nonapeptide. In kind it is functional.
Experiment [7] concerns Escherichia coli. Kind of experiment: Antimicrobial activity against wild type Escherichia coli MG1655 assessed as inhibition of microbial growth. In kind it is functional.
Experiment [8] deals with Escherichia coli. Nature of the experiment: Antibacterial activity against efflux pump-efficient Escherichia coli MG1655 assessed as bacterial growth inhibition. In kind it is functional.
The subject of experiment [9] is Staphylococcus aureus. Nature of the experiment: Antibacterial activity against Staphylococcus aureus assessed as reduction in microbial growth by CLSI based broth microdilution method. In kind it is functional.
Experiment [10] concerns Staphylococcus epidermidis. Nature of the experiment: Antibacterial activity against Staphylococcus epidermidis assessed as reduction in microbial growth after 24 hrs by CLSI based microdilution method. In kind it is functional.
The subject of experiment [11] is Staphylococcus epidermidis. Nature of the experiment: Antibacterial activity against Methicillin-resistant Staphylococcus epidermidis assessed as bacterial growth inhibition. In kind it is functional.
Experiment [12] has as its system Staphylococcus aureus. Kind of experiment: Antibacterial activity against methicillin-resistant Staphylococcus aureus assessed as reduction in microbial growth by CLSI based broth microdilution method. In kind it is functional.
For experiment [13], the system named is Staphylococcus aureus. Kind of experiment: Antibacterial activity against Linezolid-resistant Staphylococcus aureus assessed as reduction in bacterial growth. In kind it is functional.
In experiment [14] the test system is Staphylococcus epidermidis. Nature of the experiment: Antibacterial activity against linezolid-resistant Staphylococcus epidermidis assessed as reduction in bacterial growth. In kind it is functional.
The subject of experiment [15] is Mycobacterium tuberculosis. Nature of the experiment: Antibacterial activity against Mycobacterium tuberculosis H37Rv assessed as inhibition of bacterial growth. In kind it is functional.
Experiment [16] relates to Pseudomonas aeruginosa. Kind of experiment: Antibacterial activity against Pseudomonas aeruginosa PAO1 assessed as bacterial growth inhibition incubated for 24 hrs by microtiter plate reader analysis. In kind it is functional.

≈ marks a conversion by molar mass, not a printed value. Where only a bound is given, the exact number is not on record here.

For orientation: IC50 means the concentration needed to halve the response being measured. High values mean lower potency, low ones higher potency.

Coagulation factor X, sequence (P00742 41-179 limits assumed): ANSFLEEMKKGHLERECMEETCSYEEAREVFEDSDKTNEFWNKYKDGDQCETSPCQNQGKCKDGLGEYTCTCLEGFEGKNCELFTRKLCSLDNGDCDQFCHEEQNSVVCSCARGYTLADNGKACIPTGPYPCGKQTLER
Coagulation factor X, sequence (P00742 235-488 limits assumed): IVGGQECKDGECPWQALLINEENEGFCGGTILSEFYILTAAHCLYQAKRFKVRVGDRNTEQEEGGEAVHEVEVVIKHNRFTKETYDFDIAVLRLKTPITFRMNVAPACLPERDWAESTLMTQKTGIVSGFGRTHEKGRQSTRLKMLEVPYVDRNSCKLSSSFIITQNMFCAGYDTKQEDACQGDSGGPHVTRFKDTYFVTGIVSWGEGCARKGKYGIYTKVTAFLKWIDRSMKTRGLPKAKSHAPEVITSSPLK

For `C[S+]([O-])c1ccc(N2CC(CCl)OC2=O)cc1` (stereo not drawn), the MIC in experiment [1] is 16 µg/mL (≈ 58.4 µM).
Consider `CC(=O)NC[C@H]1CN(c2ccc([S+](C)[O-])cc2)C(=O)O1` (stereo partly drawn), for which the MIC in experiment [2] and in experiment [3] was 1 µg/mL (≈ 3.37 µM) in each case.
`O=C(NC[C@@H]1OC(=O)N2c3ccc(N4CCOCC4=O)cc3OC[C@@H]12)c1ccc(Cl)s1`: it took 3 nM to reach half-maximal inhibition in experiment [4] (IC50).
As for `O=C(NC[C@@H]1OC(=O)N2c3ccc(N4CCOCC4=O)cc3OC[C@H]12)c1ccc(Cl)s1`, in experiment [4], the IC50 turned out to be 50 nM.
Still for that read-out and setting: with `CC(=O)N(C)c1ccc2c(c1)OC[C@H]1[C@H](CNC(=O)c3ccc(Cl)s3)OC(=O)N21` the figure was 2210 nM; with `O=C(NC[C@@H]1OC(=O)N2c3ccc(N4CCOC4=O)cc3OC[C@@H]12)c1ccc(Cl)s1`, 15700 nM.
The same measure, in the same setting: as for `CS(=O)(=O)c1ccccc1-c1ccc2c(c1)OC[C@H]1[C@H](CNC(=O)c3ccc(Cl)s3)OC(=O)N21`, the figure is 30 nM.
On to `O=C(NC[C@@H]1OC(=O)N2c3ccc(N4CCOCC4=O)cc3SC[C@@H]12)c1ccc(Cl)s1`, for which it took 2 nM to reach half-maximal inhibition in [4] (IC50).
Turning to `O=C(NC[C@@H]1OC(=O)N2c3ccc(N4CCCCC4=O)cc3SC[C@@H]12)c1ccc(Cl)s1`, the IC50 in experiment [4] is 4 nM.
In [4], `O=C(NC[C@@H]1OC(=O)N2c3ccc(N4CCOCC4=O)cc3[S+]([O-])C[C@@H]12)c1ccc(Cl)s1` (stereo partly drawn) yielded an IC50 of 60 nM.
In [4], `O=C(NC[C@@H]1OC(=O)N2c3ccc(N4CCOCC4=O)cc3S(=O)(=O)C[C@@H]12)c1ccc(Cl)s1` had an IC50 of 20 nM.
As to `O=C(NC[C@@H]1OC(=O)N2c3ccc(N4CCOCC4=O)cc3CC[C@@H]12)c1ccc(Cl)s1`, the IC50 in experiment [4] came to 4 nM.
Still for that read-out and setting: as for `O=C(NC[C@@H]1OC(=O)N2c3ccc(N4CCCCC4=O)cc3CC[C@@H]12)c1ccc(Cl)s1`, the figure is 6 nM; as for `O=C(NC[C@@H]1OC(=O)N2c3ccc(N4CCOCC4=O)cc3NC[C@@H]12)c1ccc(Cl)s1`, 5 nM.
Take `NCc1ncc(-c2ccc(N3C[C@H](CO)OC3=O)cc2F)cc1O`: the MIC was found to be 20 µg/mL (≈ 60 µM) in experiment [5], 32 µg/mL in experiment [6], 51 µg/mL in [7] and 32 µg/mL (≈ 96 µM) in experiment [8].
For the compound `NCc1cc(F)c(-c2ccc(N3C[C@H](CO)OC3=O)cc2F)cc1O`, the MIC in experiment [5] came to 32 µg/mL (≈ 91.3 µM); in experiment [6], 32 µg/mL; in [7] it was 64 µg/mL; in experiment [8] it was 64 µg/mL (≈ 183 µM).
As for `COC(=O)C1(C(=O)OC)Cc2cc(-c3ccc(N4C[C@H](CO)OC4=O)cc3F)ccc2N2CCOCC21` (stereo partly drawn), the MIC in [9] is 16 µg/mL; in experiment [10], 8 µg/mL; in [11], 8 µg/mL (≈ 15.5 µM); in [12], 8 µg/mL; in [13], above 32 µg/mL; in experiment [14] it was above 32 µg/mL.
In the case of `CC(=O)NC[C@H]1CN(c2ccc(-c3ccc4c(c3)CC3(C(=O)NC(=O)NC3=O)C3CCCCN43)c(F)c2)C(=O)O1` (stereo partly drawn), the MIC is 2 µg/mL in experiment [9]; 2 µg/mL in experiment [10]; below 1 µg/mL in [11]; below 1 µg/mL in experiment [12]; 16 µg/mL (≈ 29.1 µM) in experiment [13]; above 32 µg/mL in [14].
Take `COC(=O)NC[C@H]1CN(c2ccc(-c3ccc4c(c3)CC3(C(=O)NC(=O)NC3=O)C3CCCN43)c(F)c2)C(=O)O1` (stereo partly drawn): the MIC in [9] is 2 µg/mL; in experiment [10], 2 µg/mL; in experiment [11], 2 µg/mL (≈ 3.63 µM); in experiment [12] it was 2 µg/mL; in experiment [13], 32 µg/mL (≈ 58 µM); in experiment [14] it was 32 µg/mL (≈ 58 µM).
On to `O=C1NC(=O)C2(Cc3cc(-c4ccc(N5C[C@H](CO)OC5=O)cc4F)ccc3N3CCOCC32)C(=O)N1` (stereo partly drawn), for which the MIC amounted to 8 µg/mL in experiment [9]; 4 µg/mL in experiment [10]; 2 µg/mL (≈ 3.92 µM) in [11]; 4 µg/mL in experiment [12]; 32 µg/mL (≈ 62.7 µM) in [13]; 32 µg/mL (≈ 62.7 µM) in experiment [14].
Take `COC(=O)NC[C@H]1CN(c2ccc(-c3ccc4c(c3)CC3(C(=O)NC(=O)NC3=O)C3COCCN43)c(F)c2)C(=O)O1` (stereo partly drawn): the MIC in [9] was 4 µg/mL; in experiment [10], 4 µg/mL; in experiment [11] it was 2 µg/mL (≈ 3.52 µM); in experiment [12] it was 4 µg/mL; in [13] it was above 32 µg/mL; in experiment [14], 32 µg/mL (≈ 56.4 µM).
As to `O=C1NC(=O)C2(Cc3cc(-c4ccc(N5C[C@H](CO)OC5=O)cc4F)ccc3N3CCCCC32)C(=O)N1` (stereo partly drawn), the MIC is 4 µg/mL in experiment [9]; 2 µg/mL in experiment [10]; below 1 µg/mL in experiment [11]; 2 µg/mL in experiment [12]; 16 µg/mL (≈ 31.5 µM) in experiment [13]; 32 µg/mL (≈ 62.9 µM) in experiment [14].
Take `COC(=O)C1(C(=O)OC)Cc2cc(-c3ccc(N4C[C@H](CNC(C)=O)OC4=O)cc3F)ccc2N2CCOCC21` (stereo partly drawn): the MIC in experiment [9] is 8 µg/mL; in [10], 4 µg/mL; in experiment [11], 4 µg/mL (≈ 7.2 µM); in experiment [12], 4 µg/mL; in experiment [13], above 32 µg/mL; in experiment [14] it was 32 µg/mL (≈ 57.6 µM).
With `CC(=O)NC[C@H]1CN(c2ccc(-c3ccc4c(c3)CC3(C(=O)NC(=O)NC3=O)C3CCCN43)c(F)c2)C(=O)O1` (stereo partly drawn), the MIC is 2 µg/mL in experiment [9]; 2 µg/mL in [10]; below 1 µg/mL in experiment [11]; 2 µg/mL in [12]; 16 µg/mL (≈ 29.9 µM) in experiment [13]; 32 µg/mL (≈ 59.8 µM) in [14].
Consider `CC(=O)NC[C@H]1CN(c2ccc(-c3ccc4c(c3)CC3(C(=O)NC(=O)NC3=O)C3COCCN43)c(F)c2)C(=O)O1` (stereo partly drawn), for which the MIC in [9] was found to be 4 µg/mL; in experiment [10], 4 µg/mL; in [11], 2 µg/mL (≈ 3.63 µM); in [12], 4 µg/mL; in experiment [13] it was 32 µg/mL (≈ 58 µM); in [14] it was 32 µg/mL (≈ 58 µM).
Take `CC(C)(C)C[C@@H](NC(=O)OCC1c2ccccc2-c2ccccc21)C(=O)N[C@@H](Cc1ccccc1)[C@H]1CN(c2ccc(N3CCOCC3)c(F)c2)C(=O)O1`: the MIC in experiment [15] was found to be 1.9 µg/mL (≈ 2.59 µM).
As to `O=C1NC(=O)C2(Cc3cc(-c4ccc(N5C[C@H](CO)OC5=O)cc4F)ccc3C3CCCCC32)C(=O)N1` (stereo partly drawn), the MIC is 4 µg/mL in experiment [9]; 2 µg/mL in [10]; below 1 µg/mL in experiment [11]; 2 µg/mL in experiment [12]; 32 µg/mL (≈ 63.1 µM) in [13]; 32 µg/mL (≈ 63.1 µM) in [14].
As to `CC(=O)NC[C@H]1CN(c2ccc(-c3ccc4c(c3)CC3(C(=O)NCNC3=O)C3CCCCC43)c(F)c2)C(=O)O1` (stereo partly drawn), the MIC in [9] was 8 µg/mL; in [10] it was 8 µg/mL; in [11], 4 µg/mL (≈ 7.48 µM); in experiment [12], 8 µg/mL; in experiment [13] it was above 32 µg/mL; in experiment [14], above 32 µg/mL.
Take `NS(=O)(=O)c1ccc(N2C[C@H](CO)OC2=O)cc1`: the MIC in experiment [1] was 16 µg/mL (≈ 58.8 µM).
Regarding `CC(C)(C)Oc1ccc(C[C@H](NC(=O)OCC2c3ccccc3-c3ccccc32)C(=O)N[C@@H](Cc2ccccc2)[C@@H]2CN(c3ccc(N4CCOCC4)c(F)c3)C(=O)O2)cc1`, in [15], the MIC came out at 12.5 µg/mL (≈ 15.1 µM).
`O=C1O[C@@H](CO)CN1c1ccc(-c2ccc3c(c2)CC2(C(=O)NCNC2=O)C2CCCCC32)c(F)c1` (stereo partly drawn): the MIC in [9] is 4 µg/mL; in experiment [10], 2 µg/mL; in experiment [11], below 1 µg/mL; in [12], 2 µg/mL; in experiment [13] it was 32 µg/mL (≈ 64.8 µM); in experiment [14] it was 32 µg/mL (≈ 64.8 µM).
With `CC(=O)NC[C@H]1CN(c2ccc(N3CCOCC3)c(F)c2)C(=O)O1` [LINEZOLID], the MIC stood at 3.1 µg/mL (≈ 9.19 µM) in experiment [5]; 1.56 µg/mL (≈ 4.62 µM) in experiment [15]; 36 µg/mL in [6]; 130 µg/mL in [7]; 2 µg/mL in experiment [10]; 2 µg/mL (≈ 5.93 µM) in [11]. The MIC in [16] is 4 µM (≈ 1.35 µg/mL); in experiment [13], above 32 µg/mL; in [8], 11 µg/mL (≈ 32.6 µM); in [14], above 32 µg/mL.

The values above are taken from ChEMBL document CHEMBL5550106, “Recent advances in the exploration of oxazolidinone scaffolds from compound development to antibacterial agents and other bioactivities” (Eur J Med Chem, 2024).
